“And” between values parts separate entries of the source, which are not always exact repeats. Equal entries are not always repeated. Structures can show the parent of a compound that is named as a salt. Where two headings read alike, the source gives them in different places.
Columns and labels:
[1] = molecular target: T1, PKA type Iα (RIα/Cα) holoenzyme (Homo sapiens, UniProt P10644); assay: Cook coupled spectrophotometric kinase assay, suppression (antagonist) assay, PKA type Iα; type: biochemical; conditions: for Potency: PKA type Iα enzymatic activity, relative to the known Rp-8-Br-cAMPS; for Antagonist / EC50: Table 1 (Example 83), PKA type Iα; for EC50: unit inferred, read-out: EC50 inhibition; for relative potency*: antagonists relative to Rp-8Br-cAMPS
[2] = molecular target: T1, PKA type Iα (RIα/Cα) holoenzyme; assay: Cook assay, activation (agonist) assay, RIα holoenzyme; type: biochemical; conditions: Table 1 (Example 83), activation screen 10 μM analog
[3] = molecular target: T2, PKA type IIα (RIIα holoenzyme) (Homo sapiens, UniProt P13861); assay: Cook kinase assay, suppression assay, PKA type IIα; type: biochemical; conditions: for relative inhibition*: % antagonist effect with 1 μM Sp-8Br-cAMPS at 250 μM of Rp-cAMPS analog; for EC50RII/EC50RI***: Selectivity for PKA type I (EC50 PKA type II/EC50 PKA type I); for Antagonist / EC50: Table 2, Holo RIIa; for EC50: unit inferred, read-out: EC50 inhibition; for relative potency**: antagonists relative to Rp-8-Br-cAMPS, Holo RIIa; for IC50: reversal of Sp-8-Br-cAMP-mediated PKA type II activation, 1 μM Sp-8-Br cAMPS, 10 nM RIIα holoenzyme, read-out: half-maximal antagonistic effect (IC50 or EC50)
[4] = system: Human peripheral T lymphocytes; assay: T lymphocyte proliferation assay (anti-CD3 activated, [3H]thymidine); conditions: Ex vivo testing in T lymphocytes; for Antagonist properties: in presence of agonist Sp-8-Br-cAMPS; for relative potency*: reference compounds = 1.00
[5] = molecular target: T2, PKA type IIα (RIIα holoenzyme); assay: Cook assay, activation of Holo RIIα; conditions: for Agonist: Table 2, Holo RIIa
[6] = molecular target: PKA type Iα (holo RIα) (Homo sapiens, UniProt P10644); assay: Biacore surface competition ligand binding assay, holo RIα; conditions: 10 nM holo RIα; for EC50: Rp-8-AHA cAMPS surface
[7] = system: CD4+ T cells of MAIDS-infected C57BL6 mice; conditions: mouse, in vivo
[8] = reversal of Sp-8-Br-cAMP-mediated PKA activation, 1 μM Sp-8-Br-cAMPS, 10 nM RIα holoenzyme, read-out: half-maximal antagonistic effect (IC50 or EC50)

Nc1ncnc2c1nc(-c1ccccc1)n2C1OC2COP(O)(=S)OC2C1O (stereo not shown) [Rp-8-phenyl-cAMPS, (Rp)-8-Phenyladenosine-3′,5′-cyclic phosphorothioic acid]
Potency [1]: 1.28
Antagonist [1]: yes
EC50 [1]: 1.06 µM
relative potency* [1]: 1.28
Agonist [2]: no
relative inhibition* [3]: 61%
EC50RII/EC50RI*** [3]: 46
Antagonist [3]: yes
EC50 [3]: 48.6 µM
relative potency** [3]: 0.31
IC50 [3]: 48.6 µM
Agonist properties [4]: No
Antagonist properties [4]: Yes
Agonist [5]: no

Nc1ncnc2c1nc(-c1ccoc1)n2C1OC2COP(O)(=S)OC2C1O (stereo not shown) [Rp-8-(3-furyl)-cAMPS, (Rp)-8-(3-Furyl)adenosine-3′,5′-cyclic phosphorothioic acid ammonium salt]
EC50 [6]: 0.743 µM
Potency [1]: 2.23
Antagonist [1]: yes
relative potency* [1]: 2.23
IC50 [1, 8]: 0.607 µM
Agonist [2]: no
Antagonist properties [4]: Yes

Cc1ccc(-c2nc3c(N)ncnc3n2C2OC3COP(O)(=S)OC3C2O)o1 (stereo not shown) [Rp-8-(5-Me-2-furyl)-cAMPS, (Rp)-8-(5-Methyl-2-furyl)adenosine-3′,5′-cyclic phosphorothioic acid tributylammonium salt]
Antagonist [1]: yes
relative potency* [1]: 1.17
IC50 [1, 8]: 1.16 µM
Agonist [2]: no
Agonist properties [4]: No
Antagonist properties [4]: Yes

(Rp)-8-(5-Methoxy-2-furyl)adenosine-3′,5′-cyclic phosphorothioic acid tributylammonium salt [Rp-8-(5-MeO-2-FU)-cAMPS]
Agonist properties [4]: No
Antagonist properties [4]: Yes
relative potency* [4]: 0.25

Nc1ncnc2c1nc(Br)n2[C@@H]1O[C@@H]2COP(O)(=S)O[C@@H]2C1O (stereo partly shown) [Sp-8-Br-cAMPS, reference compound]
Antagonist [3]: no
Agonist properties [4]: Yes
Antagonist properties [4]: No
relative potency* [4]: 1.00
Agonist [5]: yes
EC50 ([5]; read-out: EC50 (activation constant of Holo RIIα with agonist), 10 nM Holo RIIα, 3 minute preincubation): 0.294 µM

Nc1ncnc2c1nc(-c1ccc(CO)o1)n2C1OC2COP(O)(=S)OC2C1O (stereo not shown) [Rp-8-(5-MeOH-2-furyl)-cAMPS, (Rp)-8-(2-Hydroxymethyl-5-furyl)adenosine-3′,5′-cyclic phosphorothioic acid tributylammonium salt]
Antagonist [1]: yes
relative potency* [1]: 0.68
IC50 [1, 8]: 1.98 µM
Agonist [2]: no
Agonist properties [4]: No
Antagonist properties [4]: Yes

CCc1nc2c(N)ncnc2n1C1OC2COP(O)(=S)OC2C1O (stereo not shown) [Rp-8-ethyl-cAMPS]
Antagonist [1]: yes
relative potency* [1]: 0.22
IC50 [1, 8]: 6.13 µM
Agonist [2]: no
Agonist properties [4]: No
Antagonist properties [4]: Yes

Nc1ncnc2c1nc(-c1ccc(Br)o1)n2C1OC2COP(O)(=S)OC2C1O (stereo not shown) [Rp-8-(2-Br-5-furyl)-cAMPS]
Antagonist [1]: yes*
EC50 [1]: 3 µM
relative potency* [1]: 0.45
IC50 [1, 8]: 2.9 µM
Agonist [2]: no
Agonist properties [4]: No
Antagonist properties [4]: Yes

Nc1ncnc2c1nc(-c1ccsc1)n2C1OC2COP(O)(=S)OC2C1O (stereo not shown) [Rp-8-(3-thienyl)-cAMPS]
Potency [1]: 1.83
Antagonist [1]: yes
relative potency* [1]: 1.83
IC50 [1, 8]: 0.739 µM
Agonist [2]: no
Antagonist properties [4]: Yes

Nc1ncnc2c1nc(-c1cccs1)n2C1OC2COP(O)(=S)OC2C1O (stereo not shown) [Rp-8-(2-thienyl)-cAMPS, (Rp)-8-(2-Thienyl)adenosine-3′,5′-cyclic phosphorothioic acid ammonium salt]
Potency [1]: 3.01
Antagonist [1]: yes
relative potency* [1]: 3.01
IC50 [1, 8]: 0.449 µM
Agonist [2]: no
Agonist properties [4]: No
Antagonist properties [4]: Yes

(Rp)-8-(2-Thiazolyl)adenosine-3′,5′-cyclic phosphorothioic acid ammonium salt [Rp-8-(2-thiazole)-cAMPS]
Agonist properties [4]: No
Antagonist properties [4]: Weak

Nc1ncnc2c1nc(-c1ccco1)n2C1OC2COP(O)(=S)OC2C1O (stereo not shown) [Rp-8-(2-furyl)-cAMPS, (Rp)-8-(2-Furyl)adenosine-3′,5′-cyclic phosphorothioic acid ammonium salt]
EC50 [6]: 0.377 µM
binding to 8-AHA cAMP surface ([6]; any concentration of antagonist): not affected
binding of holo complex at the Rp-8-AHA cAMPS surface ([6]; excess of antagonist 10 μM): completely blocked
effect in binding to the 8-AHA cAMP surface ([6]; excess of antagonist 10 μM): no effect
Potency [1]: 4.24
Antagonist [1]: yes
EC50 [1]: 0.319 µM
IC50 ([1]; Table 3, read-out: holo RIa Cook): 0.349 µM
relative potency* [1]: 4.24
IC50 [1, 8]: 0.238 µM and 0.337 µM and 0.36 µM
Agonist [2]: no
relative inhibition* [3]: 59%
EC50RII/EC50RI*** [3]: 32
Antagonist [3]: yes
EC50 [3]: 11.6 µM
relative potency** [3]: 1.28
IC50 [3]: 11.6 µM and 16.7 µM
Agonist properties [4]: No
Antagonist properties [4]: Yes
Agonist [5]: no
IFN-γ secretion of CD4+ T cells from the infected mice [7]: slightly increasing
TNF-α secretion by CD4 T cells of infected mice [7]: inhibited
TNF-α secretion of CD4+ T cells from the infected mice after stimulation with SEB [7]: reducing
significance (p) of effect on SEB stimulated TNF-α secretion by CD4 T cells [7]: 0.0041

Nc1ncnc2c1nc(-c1cc3ccccc3o1)n2C1OC2COP(O)(=S)OC2C1O (stereo not shown) [Rp-8-benzofuryl-cAMPS, (Rp)-8-(2-Benzofuryl)adenosine-3′,5′-cyclic phosphorothioic acid tributylammonium salt]
Antagonist [1]: yes
EC50 [1]: 2.78 µM
relative potency* [1]: 0.49
Agonist [2]: no
Agonist properties [4]: No
Antagonist properties [4]: Yes

CC(=O)c1nc2c(N)ncnc2n1C1OC2COP(O)(=S)OC2C1O (stereo not shown) [Rp-8-acetyl-cAMPS]
Antagonist [1]: yes
relative potency* [1]: 0.86
IC50 [1, 8]: 1.58 µM
Agonist [2]: no
Agonist properties [4]: No
Antagonist properties [4]: Yes
